# According to patent publication US9073907B2, “Thiazoles derivatives and their use as positive allosteric modulators of metabotropic glutamate receptors” (Addex Pharma S.A., priority 2009, dated 2015):
row,SMILES,melting point [°C]
1,"Cc1ccnc(Nc2nc(-c3cn[nH]c3)cs2)n1 [Compound 1-31, N-(4-Methylpyrimidin-2-yl)-4-(1H-pyrazol-4-yl)thiazol-2-amine]",307 to 310
2,"c1ccc(Nc2nc(-c3cn[nH]c3)c(N3CCOCC3)s2)nc1 [Compound 1-2, 5-Morpholino-4-(1H-pyrazol-4-yl)-N-(pyridin-2-yl)thiazol-2-amine]",230 to 231
3,"Cc1ccc(F)c(Nc2nc(-c3cn[nH]c3)c(C)s2)n1 [Compound 1-23, N-(3-Fluoro-6-methylpyridin-2-yl)-5-methyl-4-(1H-pyrazol-4-yl)thiazol-2-amine]",323
4,"Cc1ccnc(Nc2nc(-c3c[nH]nc3N3CCOCC3)cs2)n1 [Compound 1-60, N-(4-Methylpyrimidin-2-yl)-4-(3-morpholino-1H-pyrazol-4-yl)thiazol-2-amine]",260
5,"CN(C)c1sc(Nc2ccccn2)nc1-c1cn[nH]c1 [Compound 1-12, N^5,N^5-Dimethyl-4-(1H-pyrazol-4-yl)-N^2-(pyridin-2-yl)thiazole-2,5-diamine]",232
6,"Cc1sc(Nc2nccc(C3CC3)n2)nc1-c1cn[nH]c1 [Compound 1-62, N-(4-Cyclopropylpyrimidin-2-yl)-5-methyl-4-(1H-pyrazol-4-yl)thiazol-2-amine]",228 to 231
7,"Cc1cccc(Nc2nc(-c3cnn(C(N)=O)c3)c(F)s2)n1 [Compound 1-30, 4-(5-Fluoro-2-(6-methylpyridin-2-ylamino)thiazol-4-yl)-1H-pyrazole-1-carboxamide]",209
8,"Cc1sc(Nc2cc(F)ccn2)nc1-c1cn[nH]c1 [Compound 1-19, N-(4-Fluoropyridin-2-yl)-5-methyl-4-(1H-pyrazol-4-yl)thiazol-2-amine]",283
9,"CN1CCC(Nc2nc(-c3cn[nH]c3)cs2)C1=O (stereo not drawn) [Compound 1-50, 3-(4-(1H-Pyrazol-4-yl)thiazol-2-ylamino)-1-methylpyrrolidin-2-one]",196 to 204
10,"Cc1ccnc(Nc2nc(-c3cn[nH]c3)c(C)s2)n1 [Compound 1-33, 5-Methyl-N-(4-methylpyrimidin-2-yl)-4-(1H-pyrazol-4-yl)thiazol-2-amine]",255
11,"Fc1ccc(Nc2nc(-c3cn[nH]c3)c(F)s2)nc1 [Compound 1-28, 5-Fluoro-N-(5-fluoropyridin-2-yl)-4-(1H-pyrazol-4-yl)thiazol-2-amine]",239
12,"Cc1sc(Nc2ncccc2I)nc1-c1cn[nH]c1 [Compound 1-15, N-(3-Iodopyridin-2-yl)-5-methyl-4-(1H-pyrazol-4-yl)thiazol-2-amine]",243 to 245
13,"Cc1sc(Nc2ccccn2)nc1-c1cnn(C(=O)c2ccccn2)c1 [Compound 1-63, (4-(5-Methyl-2-(pyridin-2-ylamino)thiazol-4-yl)-1H-pyrazol-1-yl)(pyridin-2-yl)methanone]",226 to 227
14,"CC(=O)c1[nH]ncc1-c1csc(Nc2ncccn2)n1 [Compound 1-67, 1-(4-(2-(Pyrimidin-2-ylamino)thiazol-4-yl)-1H-pyrazol-5-yl)ethanone]",287
15,"c1csc(Nc2nc(-c3cn[nH]c3)cs2)n1 [Compound 1-42, 4-(1H-Pyrazol-4-yl)-N-(thiazol-2-yl)thiazol-2-amine]",277 to 280
16,"Cc1nc(Nc2nc(-c3cn[nH]c3)cs2)cs1 [Compound 1-41, N-(2-Methylthiazol-4-yl)-4-(1H-pyrazol-4-yl)thiazol-2-amine]",236 to 239
17,"COc1ccc(Nc2nc(-c3cn[nH]c3)c(C)s2)nc1 [Compound 1-24, N-(5-M ethoxypyridin-2-yl)-5-methyl-4-(1H-pyrazol-4-yl)thiazol-2-amine]",229

row,SMILES,melting point [°C]
1,"Cc1cnc(Nc2nc(-c3cn[nH]c3)c(C)s2)nc1 [Compound 1-34, 5-Methyl-N-(5-methylpyrimidin-2-yl)-4-(1H-pyrazol-4-yl)thiazol-2-amine]",> 410
2,"Clc1sc(Nc2ncccn2)nc1-c1cn[nH]c1 [Compound 1-45, 5-Chloro-4-(1H-pyrazol-4-yl)-N-(pyrimidin-2-yl)thiazol-2-amine]",310 to 313
3,"c1ccc(Nc2nc(-c3cn[nH]c3)c(N3CCCCC3)s2)nc1 [Compound 1-4, 5-(Piperidin-1-yl)-4-(1H-pyrazol-4-yl)-N-(pyridin-2-yl)thiazol-2-amine]",238
4,"Cc1sc(Nc2ccccn2)nc1-c1cnn(C(=O)N(C)C)c1 [Compound 1-36, N,N-Dimethyl-4-(5-methyl-2-(pyridin-2-ylamino)thiazol-4-yl)-1H-pyrazole-1-carboxamide]",181 to 185
5,"Cc1ccnc(Nc2nc(-c3cn[nH]c3)c(Cl)s2)n1 [Compound 1-49, 5-Chloro-N-(4-methylpyrimidin-2-yl)-4-(1H-pyrazol-4-yl)thiazol-2-amine]",243
6,"Cc1ccnc(Nc2nc(-c3c[nH]nc3N3CCCCC3)cs2)n1 [Compound 1-57, N-(4-Methylpyrimidin-2-yl)-4-(3-(piperidin-1-yl)-1H-pyrazol-4-yl)thiazol-2-amine]",256
7,"Cc1cccc(Nc2nc(-c3cn[nH]c3)c(F)s2)n1 [Compound 1-11, 5-Fluoro-N-(6-methylpyridin-2-yl)-4-(1H-pyrazol-4-yl)thiazol-2-amine]",204
8,"c1cnc(Nc2nc(-c3cn[nH]c3)cs2)nc1 [Compound 1-59, 4-(1H-Pyrazol-4-yl)-N-(pyrimidin-2-yl)thiazol-2-amine]",311 to 312
9,"COCc1n[nH]cc1-c1csc(Nc2ccccn2)n1 [Compound 1-40, 4-(3-(Methoxymethyl)-1H-pyrazol-4-yl)-N-(pyridin-2-yl)thiazol-2-amine]",190
10,"Fc1sc(Nc2cnccn2)nc1-c1cn[nH]c1 [Compound 1-25, 5-Fluoro-N-(pyrazin-2-yl)-4-(1H-pyrazol-4-yl)thiazol-2-amine]",279
11,"Cc1sc(Nc2ccccn2)nc1-c1cnn(S(=O)(=O)c2ccc(Cl)cc2)c1 [Compound 1-9, 4-(1-(4-Chlorophenylsulfonyl)-1H-pyrazol-4-yl)-5-methyl-N-(pyridin-2-yl)thiazol-2-amine]",232 to 233
12,"Cc1sc(Nc2cccc(I)n2)nc1-c1cn[nH]c1 [Compound 1-14, N-(6-Iodopyridin-2-yl)-5-methyl-4-(1H-pyrazol-4-yl)thiazol-2-amine]",> 260
13,"Cc1sc(Nc2nccc(C(C)C)n2)nc1-c1cn[nH]c1 [Compound 1-52, N-(4-Isopropylpyrimidin-2-yl)-5-methyl-4-(1H-pyrazol-4-yl)thiazol-2-amine]",249 to 252
14,"Fc1cnc(Nc2nc(-c3cn[nH]c3)cs2)nc1 [Compound 1-55, N-(5-Fluoropyrimidin-2-yl)-4-(1H-pyrazol-4-yl)thiazol-2-amine]",256
15,"c1ccc(-c2n[nH]cc2-c2csc(Nc3ccccn3)n2)cc1 [Compound 1-37, 4-(3-Phenyl-1H-pyrazol-4-yl)-N-(pyridin-2-yl)thiazol-2-amine]",229 to 231
16,"Fc1sc(Nc2cccc(Cl)n2)nc1-c1cn[nH]c1 [Compound 1-13, N-(6-Chloropyridin-2-yl)-5-fluoro-4-(1H-pyrazol-4-yl)thiazol-2-amine]",239
